Tests used:
C43 [1] = experiment: C43 expression by real time RT PCR in MCF-7 cells; type: cell-based, human; settings: MCF-7 cells treated vs untreated, FIG. 17A
Experimental: (§1) MCF-7 cells were left untreated or treated with an inhibitor of DNA methyltransferase, […] (5-aza-dC). Expression of C43 was monitored by a real time RT PCR approach and cell migration ability was determined by a transwell chamber migration assay.

MCF-7 cells = experiment: transwell chamber migration assay, MCF-7 cells; type: cell-based, human; settings: FIG. 17B
Experimental: as §1

C43 [2] = experiment: C43 expression by real time RT PCR in MDA-MB-231 cells; type: cell-based, human
MDA-MB-231 cells = experiment: transwell chamber migration assay, MDA-MB-231 cells; type: cell-based, human
C43 [3] = experiment: Northern blot analysis of C43 in HT1080 cells; type: cell-based, human; settings: FIG. 11A
From the text: Total RNAs of MCF-7 cells, HT1080 or HT1080 cells treated with Con A were probed with p^32-labeled C43 probe. A single 9.5 kb mRNA transcript corresponding to C43 was detected (arrowhead). Con A enhances C43 expression in HT1080 cells. B) Expression of C43 in transfected COS-1 cells: COS-1 cells transfected with vector or C43-Myc chimera were examined by Western blotting using anti-Myc antibody. C43 was detected as a 150 kDa protein band along with degradation products.

MDA-MB-435 cells [4] = experiment: cell proliferation of MDA-MB-435 cells expressing shRNA; type: cell-based, human; settings: MDA-MB-435 cells in culture
From the text: (§2) Left panel: Loss of invasive ability of MDA-MB-435 cells by downregulation of C43. MDA-MB-435 cells expressing Luciferase shRNA control, C43 shRNA-2 and -3 were examined by the 3D invasion assay after 8 days. […] MDA-MB-435 cells expressing Luciferase shRNA shRNA, C43 shRNA-2 and -3 cultured on plastic dishes were observed under inverted microscopy with differential interference contrast (DIC).
(§3) As summarized in FIG. 1, 2×10^6 MDA-MB-435 cancer cells expressing either C43 shRNA or luciferase shRNA control were orthotopically injected into mammary tissue of nu/nu immunodeficient mice. Tumor growth was measured with calipers twice a week. Tumor size was determined using the formula: (tumor size=tumor diameter(×)square root of tumor diameter(÷)2). […] In contrast to in vivo tumor growth, downregulation of C43 had no effect on cancer MDA-MB-435 cell proliferation in tissue culture (not shown), emphasizing the unique role of C43 on protease-independent aspects of cell invasion and tumor progression.

MDA-MB-435 cancer cells = experiment: orthotopic implantation of MDA-MB-435 cells expressing shRNA into immunodeficient mice; type: in vivo, nu/nu immunodeficient mice
From the text: FIG. 1 depicts tumor growth and survival curves comparing the effect of C43 shRNA (SEQ ID NO: 2) (FIG. 1A) and control luciferase shRNA (FIG. 1B) on tumor appearance, progression, and survival following orthotopic implantation of MDA-MB-435 breast cancer cells into immunodeficient mice.
as §3

C43 [5] = experiment: shRNA effect on endogenous C43 expression, real time RT PCR in MDA-MB-435 cells; type: cell-based, human; settings: retroviral shRNA delivery
Experimental: A) Overexpresison of C43 enhanced cell migration. COS-1 cells and MCF-7 cells transfected with vector control (1 & 4), C43 (2 & 5) or MT1-MMP (3 & 6, positive control) cDNAs were evaluated by a Transwell Chamber migration assay after 6 hours. The cells were fixed and migratory cells were counted under microscopy with 20× objective. Ten fields were examined for each transfected cells. Each bar represents the mean±SE. B) Enhanced cell migration in MCF-7 cells expressing C43-GFP chimera. Minimally invasive human breast cancer MCF-7 cells stably transfected with GFP control and C43-GFP chimeric cDNA were mixed with type I collagen and dotted onto a 96-well plate. […] Cell migration was determined under microscopy. […]
Small interfering oligonucleotides specific for either C43 or luciferase (control) to express short hairpin RNA (shRNA) were designed using an online software system (Block-iT RNAi Designer; Invitrogen) for mammalian RNA interference. Specific 21-nucleotide sequences spanning nucleotides […] of the human C43 gene (see FIG. 2: SEQ ID NO: 1) and nucleotides 103-123 of luciferase from firefly Pyrocoelia pectoralis as a control were synthesized by Operon Biotechnologies, Inc. Annealed double stranded oligonucleotides were cloned into the RNAi-Ready pSIREN-Retra Q vector (Clontech). […]

MDA-MB-435 cells [6] = experiment: 3D invasion assay, MDA-MB-435 cells expressing shRNA; type: cell-based, human; settings: 3D invasion assay after 8 days, vs Luciferase shRNA control
From the text: as §2
The following methodology permits the detection of cancer cell invasion into a collagen matrix and the inhibitory activity of anti-cancer drugs. This assay is useful in identifying pharmacologic agents (drugs) that interfere with cancer progression. […] Invading cancer cells leaving the perimeter of the original collagen droplet are readily visualized extending into the surrounding collagen matrix after 18 h incubation. Both qualitative and quantitative analyses are performed microscopically. The invasive ability of cancer cells (cells outside the original droplet), as well as the effect of pharmacologic agents on the cancer cell invasion, can be determined microscopically. The effect of pharmacologic agents on invasion of cancer cells is determined by counting invading cells in the presence versus the absence of pharmacologic agents. […] This assay will be readily adaptable for high throughput screening of libraries of compounds that may be useful for cancer treatment. […]

MDA-MB-435 cells [7] = experiment: cell morphology of MDA-MB-435 cells expressing shRNA (DIC microscopy); type: cell-based, human; settings: MDA-MB-435 cells cultured on plastic dishes
From the text: as §2

[8] = tested on: human breast cancer MDA-MB-231 cells; experiment: 3D invasion assay with well-established inhibitory compounds; type: cell-based; settings: data not shown
From the text: To increase the throughput as well as to standardize and automate the readout using imaging software, we have designed and tooled a 96-well plate with a 2.1 mm3 pit in the center of each well. This tooled plate restricts the cell/matrix mixture to an identical pit (size and location) within each well, thus permitting automated microscopic imaging of cell invasion (FIG. 19). To test if imaging acquisition and data analysis can be automated, we have employed a motorized stage (Prior Scientific, Inc.) installed on the existing Nikon TE2000s inverted microscope. The automated microscopy system is controlled by the NIS-Elements imaging software (Nikon) for imaging acquisition and data analysis. Using a 10× objective, we have shown that it takes 6 minutes to scan the entire 96 well plate. To quantitatively analyze cells that invade into the matrix, using both phase contrast and nuclear-stained images is optimal.
To establish the efficacy of the assay for screening libraries, we have tested the effect of well-established inhibitory compounds on cell invasion. […] Moreover, this 3D invasion assay is simple, precise, easy to replicate, and has multiple applications.

[9] = tested on: HT1080 and/or human breast cancer MDA-MB-231 cell; experiment: 3D invasion assay, positive controls; type: cell-based; settings: positive controls in culture medium, HT1080 and/or MDA-MB-231 cells
Experimental: HT1080 cells and/or human breast cancer MDA-MB-231 cells (4×10^7/ml) mixed with type I collagen (1.5 mg/ml at final) are dispensed into the cell-holding wells in invasion assay plates (2 ul/well, optimum volume) using the liquid handling system at 4° C. working temperature to prevent the collagen from solidifying within the liquid handling system. After dotting, the plate is inserted in an incubator chamber at 37° C. for 15 min followed by the addition of type I collagen to cover the gelled cell aggregates. […] Images are acquired from transmission (phase contrast) and fluorescence (DAPI) sources by an external light shutter device that gathers two images per time point in time-lapse sequences. […] Data analysis will be performed using NIS-Element imaging software (Nikon) based on pre-determined criteria.
The following steps will be performed to screen the compound library targeting cancer cell migration/invasion using the automated 3D invasion HTS system: 1) Cell plating: HT1080 cells and/or human breast cancer MDA-MB-231 cells are used for selecting inhibitory compounds because these cells display invasive ability and represent mesenchymal cancer cells. […] Images acquired by an automated Nikon inverted microscope (TE2000s) equipped with a motorized stage (Prior Scientific) are then analyzed using the NIS-Elements software (Nikon). […]

In the case of Nc1ncn([C@H]2C[C@H](O)[C@@H](CO)O2)c(=O)n1 [5-aza-dC, a-aza-deoxycytined], the “endogenous C43 expression” value (C43 [1]) is reported as “increased”, the cell migration (MCF-7 cells) is reported as “enhanced” and the C43 expression (C43 [2]) is reported as “No effect”. The cell migration (MDA-MB-231 cells) was “No effect”.
In the case of Concanavalin A [Con A], the C43 expression (C43 [3]) is reported as “enhances”.
In the case of “C43 shRNA: 21-nucleotide C43 shRNA CCTCTCCATCCATCATACATT spanning nucleotides 1735-1757 of SEQ ID NO: 1 (chemistry not given here; listed as Homo sapiens)”, the cell proliferation (MDA-MB-435 cells [4]) is reported as “no effect”, the “tumor appearance and progression” value (MDA-MB-435 cancer cells; 2×10^6 MDA-MB-435 cells orthotopically injected into mammary tissue, vs luciferase shRNA control, FIG. 1A) is reported as “delayed” and the survival (MDA-MB-435 cancer cells; orthotopic MDA-MB-435, vs luciferase shRNA control mice, FIG. 1B) is reported as “prolonged”.
In the case of “C43 shRNA-2: C43 shRNA sequence GTGGAAGACCATATTGAATAT, nt 1104”, the “endogenous C43 expression” value (C43 [5]) is reported as “significantly decrease”, the cell invasive ability (MDA-MB-435 cells [6]) is reported as “loss of cell invasive ability” and the cell proliferation (MDA-MB-435 cells [4]) is reported as “does not alter”. The cell morphology (MDA-MB-435 cells [7]) was “Change of cell morphology”.
“C43 shRNA-3: C43 shRNA sequence GCCTCTCCATCCATCATACATT, nt 1997” was tested, and the “endogenous C43 expression” value (C43 [5]) was “significantly decrease”, the cell invasive ability (MDA-MB-435 cells [6]) was “loss of cell invasive ability” and the cell proliferation (MDA-MB-435 cells [4]) was “does not alter”. For the same molecule, the cell morphology (MDA-MB-435 cells [7]) was “Change of cell morphology”.
In the case of COc1cccc(-c2cc(=O)c3ccccc3o2)c1N [PD98059], the “inhibition of cell invasion” value [8] is reported as “dose-dependent inhibition” and the cell invasion [9] is reported as “block”.
